The test system of one series is LoVo colon cancer cells. Description: MTT cytotoxicity test, 72 h. The format is cell-based, human. Conditions: read-out: IC50 LoVo colon.
In series [1] the test system is HCT-15 colon cancer cells. Description: MTT cytotoxicity test, 72 h. It is filed as cell-based, human. The note with it: read-out: IC50 HCT-15 colon.
Series [2] relates to LoVo OXP colon cancer cells. Description: MTT cytotoxicity test, oxaliplatin resistant cells. The note with it: IC50 resistant/parent line. The format is cell-based, human.
A further series concerns PSN-1 3D spheroids. Description: Cytotoxicity in 3D spheroid cultures, APH test. Conditions: for IC50: read-out: IC50 PSN-1 3D, spheroids, 72 hours.
For series [3], the system named is HEK293 cells. Description: ROS production in non-cancerous cells. It is filed as cell-based, human. Conditions: 10 µM.
Series [4] can be described thus: Stability in phosphate buffer at 37 °C monitored by HPLC. The format is physicochemical. Conditions: pH 7, HPLC, followed over days.
Series [5] relates to PSN-1 pancreatic cancer cells. Description: MTT cytotoxicity test, 72 h. It is filed as cell-based, human. Conditions: read-out: IC50 PSN-1 pancreas.
Series [6] relates to C13* ovarian cancer cells (cisplatin resistant). Description: MTT cytotoxicity test, 72 h. It is filed as cell-based, human. The note with it: for Resistant factor (RF): IC50 resistant/parent line, C13*/2008; for IC50: read-out: IC50 C13* ovary, MTT, 72 h.
Series [7] relates to 2008 ovarian adenocarcinoma cells (cisplatin sensitive). Description: MTT cytotoxicity test, 72 h. The format is cell-based, human. The note with it: read-out: IC50 2008 ovary.
The subject of series [8] is HEK293 cells. Description: Mitochondrial membrane potential in non-cancerous cells. It is filed as cell-based, human. Conditions: 24 h, 1 µM.
For series [9], the system named is PSN-1 cells. Description: Mitochondrial membrane potential. The format is cell-based, human. The note with it: 24 h, 1 μM.
The target of a further series is T1, COX-2 (Homo sapiens, UniProt P35354).
T1 sequence (P35354 18-604): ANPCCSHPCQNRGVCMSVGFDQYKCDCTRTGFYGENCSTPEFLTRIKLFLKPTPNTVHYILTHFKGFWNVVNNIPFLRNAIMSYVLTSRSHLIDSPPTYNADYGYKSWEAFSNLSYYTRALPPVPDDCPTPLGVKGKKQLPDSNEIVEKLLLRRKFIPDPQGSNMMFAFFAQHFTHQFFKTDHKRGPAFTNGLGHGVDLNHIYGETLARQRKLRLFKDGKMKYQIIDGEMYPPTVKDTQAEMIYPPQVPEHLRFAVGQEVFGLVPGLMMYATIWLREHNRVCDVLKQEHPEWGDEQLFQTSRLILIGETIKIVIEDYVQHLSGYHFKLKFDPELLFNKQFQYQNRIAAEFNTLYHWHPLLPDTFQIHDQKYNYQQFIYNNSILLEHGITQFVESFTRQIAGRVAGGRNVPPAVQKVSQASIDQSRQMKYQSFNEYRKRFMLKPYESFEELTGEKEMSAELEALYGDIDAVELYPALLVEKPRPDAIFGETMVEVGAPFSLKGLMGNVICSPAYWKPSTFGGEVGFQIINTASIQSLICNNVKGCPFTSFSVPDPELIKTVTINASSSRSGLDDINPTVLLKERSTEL
Description: COX-2 inhibition in treated cells. Conditions: PSN-1 cells, 24 h, 1 μM. It is filed as cell-based.

The subject of series [10] is panel of human cancer cell lines (HCT-15, BCPAP, PSN-1, LoVo, 2008, C13*). Description: MTT cytotoxicity test, average over the six cell lines. It is filed as cell-based. Conditions: for IC50: read-out: Average IC50, average of one compound over the six cell lines.
Series [11] deals with PSN-1 cells. Description: ROS production. The note with it: 10 μM, compared with antimycin A. The format is cell-based, human.
Series [12] deals with HEK293 cells. Description: MTT cytotoxicity test in non-cancerous cells. The format is cell-based, human. Conditions: for Selectivity index (SI) BCPAP: IC50 non-tumor (HEK293)/tumor cell line BCPAP; for Selectivity index (SI) LoVo: IC50 non-tumor (HEK293)/tumor cell line LoVo; for Selectivity index (SI) PSN-1: IC50 non-tumor (HEK293)/tumor cell line PSN-1; for IC50: read-out: IC50 HEK293, MTT, 72 h, non-cancerous cells.

Series [13] deals with BCPAP thyroid cancer cells. Description: MTT cytotoxicity test, 72 h. It is filed as cell-based, human. Conditions: read-out: IC50 BCPAP thyroid.

With `[NH2][Pt]([NH2])([Cl])([Cl])([O]C(=O)CCCc1ccccc1)[O]C(=O)C(Cl)Cl` [CPD, ctc-[Pt(NH3)2(PhB)(DCA)Cl2]], the IC50 came out at 0.019 ± 0.01 µM in the series with LoVo colon cancer cells; 1.06 ± 0.13 µM in series [1]; 0.95 ± 1.12 µM in the series on PSN-1 3D spheroids; 0.1 ± 0.02 µM in series [5]; 0.58 ± 0.06 µM in series [6]; 0.33 ± 0.04 µM in series [7]. Also, the IC50 in series [10] turned out to be 0.37 µM; in the series with HEK293 cells [12] it was 1.56 ± 0.22 µM; in series [13], 0.11 ± 0.03 µM. In addition, the “Resistant factor (RF)” value is given as under 2 in series [2] and 1.8 in [6]. Moreover, the “Times more active than cisplatin in PSN-1 3D spheroids” value with PSN-1 3D spheroids (72 hours) is recorded as “more than 50 fold”. For the same molecule, in the series with HEK293 cells [3], the “Induction of cellular ROS production” value is listed as “barely effective”. Further, the “Stability in phosphate buffer solution” value in series [4] is reported as “stable”. In addition, in the series on HEK293 cells [8], the “Effect on mitochondrial membrane potential” value is “barely effective”. Also, the “Cells with hypopolarized mitochondrial membrane potential” value in the series with PSN-1 cells [9] is listed as 25–30%. This molecule also returned a COX-2 inhibition on COX-2 of 8.4%. For the same molecule, the “Average IC50, times lower than cisplatin” value in [10] (average over six cell lines) is reported as 34 fold. Besides, in [10] (average over six cell lines), the “Average IC50, times lower than oxaliplatin” value is on record as 9 fold. The “Average IC50, times more potent than CVD” value in series [10] (average over six cell lines) is given as 3 fold. In the series with PSN-1 cells [11], the “Increase in cellular basal ROS production” value is “only slightly inferior to that elicited by antimycin A”. Moreover, the “Selectivity index (SI) BCPAP” value with HEK293 cells [12] is given as 14.2. Besides, the “Selectivity index (SI) LoVo” value with HEK293 cells [12] came out at 82.1. Also, in the series on HEK293 cells [12], the “Selectivity index (SI) PSN-1” value was 15.6.

For the molecule `O=C1[O][Pt]2([NH][C@@H]3CCCC[C@H]3[NH]2)[O]C1=O` [OXP, oxaliplatin], the half-inhibitory concentration (IC50) in the series on LoVo colon cancer cells was determined as 1.01 ± 0.34 µM; in series [1] it was 1.15 ± 0.43 µM; in [5], 8.25 ± 3.42 µM; in series [6], 3.06 ± 1 µM; in series [7], 1.53 ± 0.88 µM; in series [10], 3.23 µM. Besides, the IC50 in series [13] was found to be 4.37 ± 1.07 µM. Moreover, the “Resistant factor (RF)” value in series [6] is on record as 2.0.

As for `[NH2][Pt]([NH2])([Cl])[Cl]` [CDDP, Cisplatin], the IC50 in the series on LoVo colon cancer cells is 9.15 ± 2.07 µM; in series [1], 15.3 ± 2.63 µM; in the series on PSN-1 3D spheroids, 52.6 ± 3.78 µM; in series [5], 18.2 ± 3.11 µM; in series [6], 22.5 ± 3.15 µM; in [7], 2.22 ± 1.02 µM. Also, the values for the IC50 (in [10]; with HEK293 cells [12]; in series [13]) were 12.5 µM, 19.6 ± 2.33 µM and 7.38 ± 1.53 µM, respectively. For the same molecule, the “Resistant factor (RF)” value in series [6] is 10.1. The “Selectivity index (SI) BCPAP” value in the series with HEK293 cells [12] was found to be 2.6. Besides, in the series on HEK293 cells [12], the “Selectivity index (SI) LoVo” value was 2.1. Also, the “Selectivity index (SI) PSN-1” value with HEK293 cells [12] came out at 1.1.
